# Patent US10537611B2, “Methods of treating lung cancer” (Five Prime Therapeutics, Inc., priority 2011, dated 2020)
# Tests used:
# [1] = biological target: T1, VEGF-A (Homo sapiens, UniProt P15692); assay: SPR interaction with VEGF-A; format: binding; details: SPR analysis
# T1 sequence (P15692 27-191 isoform P15692-4): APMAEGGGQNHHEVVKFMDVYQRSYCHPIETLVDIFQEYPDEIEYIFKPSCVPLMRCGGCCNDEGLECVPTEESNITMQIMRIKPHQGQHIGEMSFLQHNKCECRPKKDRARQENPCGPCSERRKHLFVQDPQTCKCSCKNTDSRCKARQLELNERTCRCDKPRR
# [2] = system: FGF-2 induced HUVEC proliferation; assay: FGF-2 induced HUVEC proliferation; format: cell-based, human; details: 10 μg/ml; 10 ng/ml FGF2; 3 days, CellTiter-Glo
# Experimental: To determine whether FGFR1-ECD.339-Fc blocks VEGF-induced proliferation of endothelial cells, HUVEC cells (Life Technologies, Grand Island, N.Y.) were seeded at a density of 4×10^3 cells/well in basal media (Medium 200 (Life Technologies) with 2% heat inactivated FBS) and stimulated with either 10 ng/ml FGF2 (R&D Systems, Minneapolis, Minn.) or 15 ng/ml VEGF-A165 (R&D Systems, Minneapolis, Minn.) either in the presence of absence of 10 μg/ml FGFR1-ECD.339-Fc. HUVEC cell proliferation was determined 3 days post-stimulation using CellTiter-Glo® Luminescent Cell Viability Assay.
# [3] = system: Caki-1 renal cell carcinoma xenograft, CD31; assay: Tumor angiogenesis (CD31 immunostaining) in Caki-1 xenograft; format: in vivo, mouse; details: Caki-1 tumors; 5 mg/kg intravenously twice a week; Day 57
# Experimental: Human renal carcinoma Caki-1 cells (1.5×10^7 cells/mouse) cells were implanted subcutaneously into the right flank of CB17-SCID mice. One day after tumor implantation, the mice were randomized and treated intravenously with either vehicle or FGFR1-ECD.339-Fc (5 mg/kg) twice a week. At the end of the study (Day 57), tumors were excised (N=3/gp) and used for histological analysis. Frozen sections were probed with anti-mouse CD31 monoclonal antibody (BD Biosciences, Franklin Lakes, N.J.) and visualized using HRP-conjugated secondary antibody coupled with diaminobenzidine staining (brown color). Slides were counter-stained with hematoxylin to identify cell nuclei (blue color). Representative sections are shown (5× magnification).
# [4] = system: NCI-H1581 xenograft model; assay: NCI-H1581 NSCLC xenograft tumor growth inhibition; format: in vivo, mouse; details: Lung NCI-H1581, IP 15 mg/kg BIW, FGFR1 amplified, P = 0.002
# Experimental: FGFR1-ECD.339-Fc was formulated in PBS at 3 mg/ml and administered intraperitoneally (i.p.) at 15 mg/kg (300 μg/100 μl/mouse) twice a week for four weeks. Human albumin was purchased from Grifols USA (Los Angeles, Calif.; Cat. No. NDC 61953-0002-1), diluted to a working stock (3 mg/ml) with 0.9% sodium chloride, and was used as negative control at 300 μg/100 μl/mouse (15 mg/kg) administered twice a week for four weeks.
# Six week old female SCID mice were purchased from Charles River Laboratories (Wilmington, Mass.) and were acclimated for 1 week before the start of the study. Human non-small cell lung cancer (NSCLC) cell line NCI-H1581 was used as the tumor model and was purchased from ATCC (Manassas, Va.; Cat. No. CRL-5878). The cells were cultured for three passages in ACL-4 medium (serum-free). […]
# Tumor sizes were measured in each mouse on days 7, 10, 14, 17, 21, 25 and 31 following the day of tumor cell inoculation. The length and width of each tumor was measured using calipers and the tumor size calculated according to the formula: Tumor size (mm^3)=[…] Mice were euthanized as a “cancer death” when the subcutaneous tumor volumes exceeded 2000 mm^3 or when the tumors became excessively necrotic.
# [5] = system: MDA-MB-231 xenograft model; assay: MDA-MB-231 xenograft tumor growth inhibition; format: in vivo, mouse; details: Breast MDA-MB-231; IP 15 mg/kg BIW; non-amplified; P ns
# Experimental: (§1) Percentage tumor growth inhibition by FGFR1-ECD.339-Fc was determined by area-under-the-curve (AUC) analysis of xenograft growth curves treated with FGFR1-ECD.339-Fc compared to albumin control. […] The difference in FGFR1-ECD.339-Fc-mediated xenograft inhibition between FGFR1 gene amplified and non-amplified lung cancer xenograft models was statistically significant (P=0.0333).
# (§2) Also shown in Table 5 are the dosing schedule for FGFR1-ECD.339-Fc in a mouse xenograft model, the percent tumor growth inhibition (TGI (%)) and the statistical significance of the tumor growth inhibition (P Value), as well as whether the FGFR1 gene is amplified in the cell line.
# (§3) An exemplary xenograft experiment is as follows. For Caki-1 and MSTO-211H, five million cells were implanted subcutaneously over the right flank of SCID mice (N=10 per group). […] Representative tumor growth curves are shown for a renal cancer, Caki-1, (A), and mesothelioma, MSTO-211H, (B) xenograft cancer model. […] In the MSTO-211H mesothelioma model, FGFR1-ECD.339-Fc administration reduced tumor growth (FIG. 16b) by 64% (P<0.0001).
# [6] = system: NCI-H460 xenograft model; assay: NCI-H460 xenograft tumor growth inhibition; format: in vivo, mouse; details: Lung NCI-H460; IP 10 mg/kg BIW; non-amplified; P < 0.05
# Description: The impact of FGFR1-ECD.339-Fc on tumor growth was compared between FGFR1 gene amplified and non-amplified lung cancer xenograft models. Lung cell lines without FGFR1-amplification examined in this experiment were as follows: A549, NCI-H460, NCI-H226, NCI-H2126, NCI-H441, NCI-H358, NCI-H522 and Colo699. Non-amplified cell lines were purchased from ATTC (Manassas, Va.) and cultured according to supplier instructions. Lung cancer xenograft models using non-FGFR1 gene amplified cell lines were carried out substantially as described in Example 2.
# as §1
# [7] = system: MFE-280 xenograft model; assay: MFE-280 xenograft tumor growth inhibition; format: in vivo, mouse; details: Endometrial MFE-280; IP 15 mg/kg BIW; non-amplified; P < 0.001
# Experimental: as §1, §2, §3
substance,measurement,setting,value
"FGFR1-ECD.339-Fc: human FGFR1 extracellular domain ending at amino acid 339 fused to an Fc; SEQ ID NO: 6 (mature form), SEQ ID NO: 5 with signal peptide",direct interaction with VEGF-A,[1],does not directly interact
same,FGF-2 induced HUVEC proliferation,[2],capable of blocking
same,CD31 staining (tumor angiogenesis),[3],reduced CD31 staining
same,TGI (%),[4],74%
same,TGI (%),[5],0%
same,TGI (%),[6],35%
same,TGI (%),[7],96%
